Experimental data as given in patent US20200338125A1, “METHOD FOR EXPANSION OF LYMPHOCYTES” (LUDWIG INSTITUTE FOR CANCER RESEARCH LTD, priority 2017, published 2020).

Tested on: TILs of patient CTE-0009
Assay: IFNγ-ELISPOT of TILs from draining lymph nodes, patient CTE-0009
Type: cell-based, human
Conditions: FIG. 5; day 14; conventional and primed cultures from draining lymph nodes
Experimental: Both “conventional” and “primed” TILs of patient CTE-0009 were generated from a single cell suspension of draining lymph nodes, following the methods described herein. Each culture was interrogated at day 14 by IFNγ-ELISPOT for the presence of neo-antigen T cell reactivities directed against one of the 4 predicted peptides and against the corresponding wild-type (wt) peptides. […] PHA was used at 1 μg/ml.
T cell reactivity against predicted neo-antigens was tested by IFNγ ELISpot on pre-REP TILs. Positivity was confirmed in ≥2 independent experiments.

## TPINPRRCL [wt]
  neo-antigen T cell reactivities directed against the peptide: not
